Consider 14 compounds from patent publication US20250188078A1, “SMALL MOLECULE INHIBITORS OF THE CRL4 UBIQUITIN LIGASE” (Cornell University, priority 2022, published 2025).

The subject of data set [1] is CUL4A^high MDA-MB-468 breast cancer cells. The data set is described as follows: Cell killing in CUL4-high MDA-MB-468 cells (CellTiter Glo). Particulars: Homo sapiens, 192 h; MDA-MB-468 cells, 8 days treatment; read-out: EC50 CUL4-High Cells (cell killing). It is filed as cell-based. Here is the method: EC50 refers to concentration of compound that induces 50% killing of CUL4A^high MDA-MB-468 cells (see Table 1, column 6). CUL4A^high MDA-MB-468 breast cancer cells were seeded in 96 well plates. After 24 hours, cells were treated with DMSO or compounds. Change fresh medium and compounds. After 8 days treatment, cell viability was examined by using CellTiter Glo kit (Promega #7570) following the manufacturer's guidelines (https://www.promega.com/-/media/files/resources/protocols/technicalbulletins/0/celltiter-glo-luminescent-cell-viability-assay protocol.pdf?rev=0d95c232094b41daa06d0c110d1d916f&sc_lang=en, hereby incorporated by reference in its entirety for all purposes). EC50 concentration was calculated by Prism 8 XY analysis nonlinear regression (curve fit-Log(inhibitor) vs response). Lower EC50 indicates high cell killing potential in CUL4^high MDA-MB-468 cells.
(§1) CUL4A^high MDA-MB-468, CUL4^low (T47D), and MCF7 breast cancer cells were seeded in 96 well plates separately. Cells were treated with DMSO, or from 0 to 20 μM compound respectively. Replace with fresh medium and compounds every 48 hours. After 8 days treatment, cell viability was examined by CellTiter Glo kit (Promega #7570). First, transfer the appropriate volume (10 ml for Cat. #G7570) of CellTiter-Glo® Buffer into the amber bottle containing CellTiter-Glo® Substrate to reconstitute the lyophilized enzyme/substrate mixture. This forms the CellTiter-Glo® Reagent. Second, add CellTiter-Glo® Reagent in an equal volume (100 μl per well for 96-well plates) to all wells. Mix contents for 2 minutes on an orbital shaker to induce cell lysis. Incubate at room temperature for 15 minutes to stabilize luminescent signal. Then record luminescence. EC50 concentration was calculated by Prism 8 XY analysis nonlinear regression (curve fit-Log(inhibitor) vs response).

The subject of data set [2] is CUL4A^low T47D breast cancer cells. The data set is described as follows: Cell killing in CUL4-low T47D cells (CellTiter Glo). It is filed as cell-based. Particulars: Homo sapiens, 192 h; T47D cells, 8 days treatment; read-out: EC50 CUL4-Low Cells (cell killing). Here is the method:
EC50 indicates compound concentration can cause 50% cell killing in CUL4° ^w T47D cells (see Table 1, column 7). CUL4A^low T47D breast cancer cells were seeded in 96 well plate. […] Change fresh medium and compounds every 48 hours. After 8 days treatment, cell viability was examined by using CellTiter Glo kit (Promega #7570) following the manufacturer's guidelines (https://www.promega.com/-/media/files/resources/protocols/technical-bulletins/0/celltiter-glo-luminescent-cell-viability-assay-protocol.pdf?rev=0d95c232094b41daa06d0c110d1d916f&sc_lang=en, hereby incorporated by reference in its entirety for all purposes). EC50 concentration was calculated by Prism 8 XY analysis nonlinear regression (curve fit-Log(inhibitor) vs response). EC50 indicates cell killing potential in CUL4 low T47D cell line and the EC50 difference between CUL4^high and CUL4^low cells indicates the small molecule cause specific cell killing.
as §1, with “Cells were treated with DMSO, or from 0 to 20 μM compound respectively.” left out
In general terms: Cellular ATP, detected with luciferase, serves as a proxy for viable cell number.

Data set [3] has as its target CUL4A-DDB1-BPB interaction (Homo sapiens (Human), UniProt Q16531). The data set is described as follows: AlphaLISA in vitro binding assay, CUL4A and DDB1-BPB binding. The settings on record: inhibition of CUL4A and DDB1-BPB binding. An excerpt:
AlphaLISA IC50 (see Table 1, column 4) means the half maximal inhibitory concentration of compound that inhibits CUL4A and DDB1-BPB binding. Our lab established and optimized 384 well-based AlphaLISA in vitro binding assay for testing small molecule inhibitory activity. Small molecule libraries were screened for compounds that disrupt CUL4A-DDB1-BPB interaction using AlphaScreen detection beads (PerkinElmer, #AL112C and #6765300) following the manufacturer's protocol (https://www.perkinelmer.com/PDFs/downloads/GDE-Alphatech.pdf, hereby incorporated by reference in its entirety for all purposes). The 384-well assay plates (Greiner Bio-one, #781075) were read in Synergy Neo2 Hybrid Multi-Mode Reader (BioTek). The IC50 was calculated by Prism 8 XY analysis nonlinear regression (curve fit-Log(inhibitor) vs response).
Background: In Alpha technology, singlet oxygen from a donor bead excites a nearby acceptor bead.

In data set [4] the test system is UV-induced CUL4-dependent DDB2 degradation in MEF-F-DDB2 cells. The data set is described as follows: Cell-based assay for inhibition of UV-induced CUL4-dependent DDB2 degradation. Also on record: key: (+) means that the normalized DDB2/α-tubulin ratio is higher in the compound treated sample than DMSO treated sample; (−) means that no change happens between compound treated sample with control sample. The settings on record: DDB2/α-tubulin by Western blot. The method, then: Cell-based assay for inhibition of UV-induced CUL4-dependent DDB2 degradation by small molecule CUL4 inhibitors (see Table 1, column 5). Briefly, MEF-F-DDB2 cells were seeded in 6-well plates. DMSO or indicated concentrations of compounds were added to MEF-F-DDB2 cells growing in serum-free medium. MEF-F-DDB2 cells were washed once with PBS and subsequently irradiated with a Philips TUV lamp (predominantly 254 nm) at a dose rate of 0.2 W/m^2. DMSO or compounds were added to MEF-F-DDB2 cells, and then cells were harvested. The cells were lysed, and equal amounts of proteins were resolved on SDS-PAGE gel and Flag-DDB2 levels were detected using anti-DDB2 (D4C4) rabbit antibody (Cell signaling, #5416S). α-tubulin (Proteintech, #66031-1-Ig) was used as an internal loading control. (+) means that the normalized DDB2/α-tubulin ratio is higher in the compound treated sample than DMSO treated sample. (−) means that no change happens between compound treated sample with control sample.
Background: In western blotting, separated proteins are transferred to a membrane and probed.

Data set [5] can be described thus: Dynamic light scattering (DLS) solubility assay. It is filed as physicochemical. Particulars: normalized intensity ratio of 25 μM compound vs DMSO, in PBS. Here is the method: Dynamic light scattering (DLS) (see Table 1, column 3) is a tool for studying the diffusion behavior of macromolecules in solution. To profile compound solubility, DLS assay was developed for measuring aggregation of small molecule compounds. Compound stock solution was prepared in DMSO. Dilution series were made for each compound in DMSO to ensure a final 1× assay concentration range of 200 μM to 0.78 μM. For example, if the final DMSO concentration was 1%, compounds were prepared at 100× concentrations ranging from […] to 78 μM. Dilute compounds in PBS solution to final concentration. Place 60 μl/well in 96 well plates and 3 replicates for each sample. Data were collected using a DynaPro Plate Reader III (WYATT Technologies, Inc., USA). The instrument was adjusted to measure the optimal light scattering intensity according to the manufacturer's instructions. […] The ratio over 2 means (−) insoluble. The ratio below 2 means (+) soluble and around 2 means (+/−).

The structures appear in SMILES notation.

Sequence of CUL4A-DDB1-BPB interaction (Q16531 403-706): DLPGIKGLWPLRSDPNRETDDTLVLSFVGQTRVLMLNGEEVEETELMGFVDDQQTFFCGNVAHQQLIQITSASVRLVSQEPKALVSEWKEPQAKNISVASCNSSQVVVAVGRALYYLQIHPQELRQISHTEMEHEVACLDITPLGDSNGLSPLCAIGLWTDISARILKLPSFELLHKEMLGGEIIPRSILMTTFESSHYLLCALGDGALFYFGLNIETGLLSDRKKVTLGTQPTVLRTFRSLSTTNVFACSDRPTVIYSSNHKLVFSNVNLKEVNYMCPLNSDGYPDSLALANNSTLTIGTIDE

Turning to `CN(c1ccc(-c2nc(C(=O)O)cc3c2[nH]c2ccc(F)cc23)cc1)S(=O)(=O)c1ccc(Br)cc1` [PA2-4, 1-[4-[(4-bromophenyl)sulfonyl-methyl-amino]phenyl]-6-fluoro-9H-pyrido[3,4-b]indole-3-carboxylic acid], the EC50 (commonly the concentration giving half of the maximal effect) in data set [1] is 4.49 µM; in data set [2] it was greater than 100 µM. In data set [3], the IC50 (usually the concentration at which inhibition is half-maximal) was determined as 0.75 µM. Moreover, the “Degradation Inhibition (inhibition of UV-induced DDB2 degradation)” value (“Degradation Inhibition” below) in data set [4] is listed as “+”.

On to `CN(c1ccc(-c2nc(C(=O)O)cc3c2[nH]c2cc(C#N)ccc23)cc1)S(=O)(=O)c1ccccc1` [PA1-9, 7-cyano-1-(4-(N-methylphenylsulfonamido)phenyl)-9H-pyrido[3,4-b]indole-3-carboxylic acid], for which the EC50 in data set [1] worked out at 7.87 µM. The “Solubility (DLS Assay)” value in data set [5] is reported as “-(insoluble)”. Moreover, the IC50 in data set [3] turned out to be 0.085 µM. In addition, in data set [4], the “Degradation Inhibition” value is “+”.

As to `CS(=O)(=O)NC(=O)c1cc2c([nH]c3ccccc32)c(-c2ccc(S(C)(=O)=O)cc2)n1` [PA55], the 50% effective concentration (EC50) stood at 30.7 µM in data set [1] and 53.8 µM in data set [2]. The IC50 in data set [3] stood at 11.1 ± 2.71 µM. Further, the “Degradation Inhibition” value in data set [4] was “−”.

On to `N#Cc1cc2c([nH]c3ccccc32)c(-c2ccc([N+](=O)[O-])cc2)n1` [PA42, 1-(4-nitrophenyl)-9H-pyrido[3,4-b]indole-3-carbonitrile], for which the EC50 in data set [1] was 73.1 µM; in data set [2] it was greater than 100 µM. Besides, the “AlphaLisa IC50” value in data set [3] was “Neg”.

As to `CS(=O)(=O)c1ccc(-c2nc(C(=O)O)cc3c2[nH]c2ccc(F)cc23)cc1` [PA71], the “Solubility (DLS Assay)” value in data set [5] is “-(insoluble)”. In addition, the half-maximal inhibitory concentration (IC50) in data set [3] came out at 0.36 ± 0.04 µM. In data set [4], the “Degradation Inhibition” value is reported as “−”.

As to `COC(=O)c1cc2c([nH]c3cc(F)cc(C)c32)c(-c2ccc(N(C)S(=O)(=O)c3ccccc3)cc2)n1` [PA1-14 ESTER, methyl 1-[4-[benzenesulfonyl(methyl)amino]phenyl]-7-fluoro-5-methyl-9H-pyrido[3,4-b]indole-3-carboxylate], the “Solubility (DLS Assay)” value in data set [5] is “-(insoluble)”. In addition, in data set [3], the “AlphaLisa IC50” value was “Neg”. Besides, in data set [4], the “Degradation Inhibition” value is “−”.

With `CN(c1ccc(-c2nc(C(=O)O)cc3c2[nH]c2cc(F)ccc23)c(F)c1)S(=O)(=O)c1ccccc1` [PA1-12, 1-[4-[benzenesulfonyl(methyl)amino]-2-fluoro-phenyl]-7-fluoro-9H-pyrido[3,4-b]indole-3-carboxylic acid], the EC50 in data set [1] worked out at 7.37 µM. In data set [5], the “Solubility (DLS Assay)” value is reported as “-(insoluble)”. Further, the IC50 in data set [3] is 0.75 µM. For the same compound, the “Degradation Inhibition” value in data set [4] is given as “+”.

As for `O=C(O)c1cc2c([nH]c3cc(F)ccc32)c(-c2ccc(OCc3ccccc3)cc2)n1` [PA1-11, 1-(4-benzyloxyphenyl)-7-fluoro-9H-pyrido[3,4-b]indole-3-carboxylic acid], in data set [1], the EC50 is 9.9 µM. For the same compound, in data set [5], the “Solubility (DLS Assay)” value was “-(insoluble)”. Moreover, the half-maximal inhibitory concentration (IC50) in data set [3] is 5.84 µM. Also, the “Degradation Inhibition” value in data set [4] is “−”.

In the case of `N#Cc1ccc(-c2nc(C(=O)O)cc3c2[nH]c2ccccc23)cc1` [PA19], in data set [5], the “Solubility (DLS Assay)” value is reported as “-(insoluble)”. For the same compound, the IC50 in data set [3] came to 2.01 ± 0.44 µM. Moreover, the “Degradation Inhibition” value in data set [4] is given as “+”.

`CN(c1ccc(-c2nc(C(=O)O)cc3c2[nH]c2ccccc23)cc1)S(C)(=O)=O` [PA75, 1-[4-[methyl(methylsulfonyl)amino]phenyl]-9H-pyrido[3,4-b]indole-3-carboxylic acid]: the concentration giving a half-maximal response (EC50) was 38.7 µM in data set [1] and 64 µM in data set [2]. The IC50 in data set [3] is 1.39 ± 0.43 µM.

On to `COc1ccc2[nH]c3c(-c4ccc(S(C)(=O)=O)cc4)nc(C(=O)O)cc3c2c1` [PA74], for which, in data set [5], the “Solubility (DLS Assay)” value is reported as “-(insoluble)”. Further, in data set [3], the 50% inhibitory concentration (IC50) was found to be 1.83 ± 0.09 µM. In addition, the “Degradation Inhibition” value in data set [4] is “+”.

Take `CN1CCN(S(=O)(=O)N(C)c2ccc(-c3nc(C(=O)O)cc4c3[nH]c3cc(F)ccc34)cc2)CC1` [PA1-13A-3, 1-(4-(N,4-dimethylpiperazine-1-sulfonamido)phenyl)-7-fluoro-9H-pyrido[3,4-b]indole-3-carboxylic acid]: in data set [1], the EC50 worked out at 7.25 µM. Moreover, in data set [5], the “Solubility (DLS Assay)” value is reported as “-(insoluble)”. Further, the half-inhibitory concentration (IC50) in data set [3] came to 0.45 µM. In addition, the “Degradation Inhibition” value in data set [4] is “−”.

For the compound `O=C(O)c1cc2c([nH]c3ccccc32)c(-c2ccc(S(=O)(=O)Cc3ccccc3)cc2)n1` [PA67, 1-(4-benzylsulfonylphenyl)-9H-pyrido[3,4-b]indole-3-carboxylic acid], the EC50 in data set [1] was 53.8 µM; in data set [2], greater than 100 µM. In data set [3], the IC50 turned out to be 1.22 ± 0.35 µM.

For `CS(=O)(=O)Oc1ccc(-c2nc(C(=O)O)cc3c2[nH]c2ccccc23)cc1` [PA53, 1-(4-methylsulfonyloxyphenyl)-9H-pyrido[3,4-b]indole-3-carboxylic acid], the values for the concentration giving a half-maximal response (EC50) in data set [1] and in data set [2] were 27.5 µM and 69.5 µM, respectively. Moreover, in data set [3], the IC50 amounted to 1.31 ± 0.24 µM.
